Among the data in patent US20160046618A1, “Cyclopropyl Fused Thiazin-2-Amine Compounds as Beta-Secretase Inhibitors and Methods of Use” (AMGEN INC., priority 2014, published 2016) are IC50 values, retold here.

As usually defined, the IC50 is the concentration that inhibits the measured activity by half.

Like-named read-outs stand apart in the source and are kept apart here. Bounds are passed on as bounds.

For one experiment, the target named is human recombinant BACE2 (Homo sapiens (Human), UniProt Q9Y5Z0). Description: In vitro enzymatic BACE2 FRET assay. Type of experiment: biochemical. The settings on record: read-out: IC50 IP (μM) BACE2 enzyme. Put shortly:
(§1)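 Ni-NTA-purified recombinant protease incubated with compound; reaction started with 50 nM FRET peptide substrate (fluorophore/quencher flanking the BACE cleavage site) and run 1 h. Stopped with Tris buffer raising pH to neutral; fluorescence read at ex 488/em 590 nm.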

The target of a further experiment is human recombinant BACE1 (Homo sapiens (Human), UniProt P56817). Description: In vitro enzymatic BACE1 FRET assay. Type of experiment: biochemical. The settings on record: read-out: IC50 IP (μM) BACE1 enzyme. Summed up:
as §1

A further experiment deals with Recombinant Cat D (Homo sapiens (Human), UniProt P07339). The experiment is described as follows: In vitro enzymatic Cathepsin D (Cat D) FRET assay. Type of experiment: biochemical. Particulars: read-out: IC50 IP (μM) CatD. Put shortly:
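Assay pH is 3.5 (0.05 M citrate, 5 mM CHAPS, 10% DMSO final) with Cat D from CHO cells. A 20 nM quenched peptide substrate is cleaved over one hour; the reaction is ended with Tris and read by fluorescence (ex 500, em 580 nm).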

Experiment [1] relates to Aβ40 in conditioned medium of cells stably expressing Amyloid Precursor Protein (APP). Description: In vitro BACE-1 cell-based assay (Aβ40 sandwich ELISA). Particulars: read-out: IC50 IP (μM) BACE1 cell. Summed up:
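APP-expressing cells treated 24 h at 37 °C with compound in 10-point dose response (top 100 μM or 10 μM, 0.1% DMSO final). Secreted Aβ40 in conditioned medium quantified by sandwich ELISA (pAb40 capture, biotinylated 6E10 detection, time-resolved europium fluorescence); IC50 from percent inhibition versus concentration.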

Chain of Recombinant Cat D (P07339 65-412): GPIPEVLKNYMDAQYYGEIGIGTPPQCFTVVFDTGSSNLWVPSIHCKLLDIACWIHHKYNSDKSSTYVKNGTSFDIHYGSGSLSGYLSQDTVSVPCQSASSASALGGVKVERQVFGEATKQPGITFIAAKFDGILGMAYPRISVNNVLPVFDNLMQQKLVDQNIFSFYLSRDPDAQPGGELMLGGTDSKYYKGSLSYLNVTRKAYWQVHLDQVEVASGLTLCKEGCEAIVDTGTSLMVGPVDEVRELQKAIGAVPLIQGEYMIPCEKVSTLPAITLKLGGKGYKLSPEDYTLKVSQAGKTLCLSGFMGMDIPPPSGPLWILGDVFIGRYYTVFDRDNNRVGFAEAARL
Chain of human recombinant BACE1 (P56817 46-501): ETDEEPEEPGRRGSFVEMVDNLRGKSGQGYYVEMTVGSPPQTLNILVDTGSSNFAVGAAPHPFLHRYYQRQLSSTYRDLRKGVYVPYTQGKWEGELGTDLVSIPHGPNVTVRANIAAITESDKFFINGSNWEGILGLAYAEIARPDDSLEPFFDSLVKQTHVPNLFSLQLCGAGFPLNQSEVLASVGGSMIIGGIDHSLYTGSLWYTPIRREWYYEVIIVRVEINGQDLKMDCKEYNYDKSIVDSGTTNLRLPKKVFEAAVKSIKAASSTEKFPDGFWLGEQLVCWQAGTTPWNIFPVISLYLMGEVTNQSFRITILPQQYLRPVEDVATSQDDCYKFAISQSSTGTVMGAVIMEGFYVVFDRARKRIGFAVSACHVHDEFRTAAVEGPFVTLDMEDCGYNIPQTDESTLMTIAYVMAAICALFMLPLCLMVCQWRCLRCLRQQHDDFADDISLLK
Chain of human recombinant BACE2 (Q9Y5Z0 63-518): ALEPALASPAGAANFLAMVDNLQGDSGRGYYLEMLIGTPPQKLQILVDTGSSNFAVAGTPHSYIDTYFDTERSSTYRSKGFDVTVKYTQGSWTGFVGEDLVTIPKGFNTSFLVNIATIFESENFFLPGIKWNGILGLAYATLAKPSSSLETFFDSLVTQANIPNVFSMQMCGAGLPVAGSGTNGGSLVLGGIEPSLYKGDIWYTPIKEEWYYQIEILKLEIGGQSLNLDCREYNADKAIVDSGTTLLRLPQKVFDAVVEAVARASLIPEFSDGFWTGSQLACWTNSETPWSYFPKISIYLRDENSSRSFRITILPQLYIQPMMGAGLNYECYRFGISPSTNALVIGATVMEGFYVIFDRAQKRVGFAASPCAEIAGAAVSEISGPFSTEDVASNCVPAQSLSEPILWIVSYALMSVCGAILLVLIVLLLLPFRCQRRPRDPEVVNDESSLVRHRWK

As for `C#CCOc1cnc(C(=O)Nc2cnc(F)c([C@@]3(C)N=C(N)S[C@@]4(COC)C[C@H]43)c2)cn1` [Example 859, N-(5-((1S,5S,6S)-3-amino-1-(methoxymethyl)-5-methyl-2-thia-4-azabicyclo[4.1.0]hept-3-en-5-yl)-6-fluoro-3-pyridinyl)-5-(2-propyn-1-yloxy)-2-pyrazinecarboxamide], the half-maximal inhibitory concentration (IC50) at human recombinant BACE2 was found to be 0.0194 µM; on human recombinant BACE1, 0.000799 µM; on Recombinant Cat D, 590 µM; in experiment [1] it was 0.000762 µM.

Turning to `COC[C@]12C[C@H]1[C@@](C)(c1cc(Nc3nccc4cc(C#N)cnc34)cnc1F)N=C(N)S2` [Example 847, 8-((5-((1S,5S,6S)-3-amino-1-(methoxymethyl)-5-methyl-2-thia-4-azabicyclo[4.1.0]hept-3-en-5-yl)-6-fluoro-3-pyridinyl)amino)-1,7-naphthyridine-3-carbonitrile], the IC50 was 0.00955 µM on human recombinant BACE2, 0.0113 µM at human recombinant BACE1, 1910 µM on Recombinant Cat D and 0.00675 µM in experiment [1].

In the case of `C[C@]1(c2cc(Nc3nccc4nc(OCc5cocn5)cnc34)ccc2F)N=C(N)S[C@]2(CO)[C@H]1C2(F)F` [Example 706, ((1S,5S,6R)-3-amino-7,7-difluoro-5-(2-fluoro-5-((2-(1,3-oxazol-4-ylmethoxy)pyrido[3,4-b]pyrazin-5-yl)amino)phenyl)-5-methyl-2-thia-4-azabicyclo[4.1.0]hept-3-en-1-yl)methanol], the half-inhibitory concentration (IC50) on human recombinant BACE2 came out at 0.0294 µM; at human recombinant BACE1, 0.00292 µM; on Recombinant Cat D, 354 µM; in experiment [1], 0.0086 µM.

For `COC[C@]12C[C@H]1[C@@](C)(c1cc(Nc3ncnc4cc(OCc5ncco5)cnc34)cc(F)c1F)N=C(N)S2` [Example 809, N-(3-((1S,5S,6S)-3-amino-1-(methoxymethyl)-5-methyl-2-thia-4-azabicyclo[4.1.0]hept-3-en-5-yl)-4,5-difluorophenyl)-7-(1,3-oxazol-2-ylmethoxy)pyrido[3,2-d]pyrimidin-4-amine], the concentration for half-maximal inhibition (IC50) at human recombinant BACE2 stood at 0.0358 µM; on human recombinant BACE1, 0.000974 µM; on Recombinant Cat D, 123 µM; in experiment [1] it was 0.00181 µM.

Turning to `COC[C@H](C)Oc1cnc(C(=O)Nc2ccc(F)c([C@@]3(C)N=C(N)S[C@@]4(C(F)F)C[C@@H]34)c2)cn1` [Example 971, N-(3-((1S,5S,6S)-3-amino-1-(difluoromethyl)-5-methyl-2-thia-4-azabicyclo[4.1.0]hept-3-en-5-yl)-4-fluorophenyl)-5-((1S)-2-methoxy-1-methylethoxy)-2-pyrazinecarboxamide], the half-inhibitory concentration (IC50) on human recombinant BACE2 turned out to be 0.38 µM; on human recombinant BACE1, 0.00522 µM; on Recombinant Cat D it was 611 µM; in experiment [1], 0.0185 µM.

For `C#CCOc1cnc(C(=O)Nc2cc(F)c(F)c([C@@]3(C)N=C(N)S[C@@]4(CO)C[C@H]43)c2)cn1` [Example 61, N-(3-((1S,5S,6S)-3-amino-1-(hydroxymethyl)-5-methyl-2-thia-4-azabicyclo[4.1.0]hept-3-en-5-yl)-4,5-difluorophenyl)-5-(2-propyn-1-yloxy)-2-pyrazinecarboxamide], the half-inhibitory concentration (IC50) stood at 0.0201 µM at human recombinant BACE2 (BACE2 FRET enzyme assay), 0.0003 µM at human recombinant BACE1 (BACE1 FRET enzyme assay), 59.7 µM on Recombinant Cat D (Cathepsin D FRET enzyme assay) and 0.00035 µM in experiment [1] (BACE1 cell-based assay).

Regarding `C#CCOc1cnc2c(Nc3ccc(F)c([C@@]4(CF)N=C(N)S[C@@]5(/C=C/C(=O)N(C)C)C[C@H]54)c3)ncnc2c1` [Example 776, (2E)-3-((1R,5S,6S)-3-amino-5-(fluoromethyl)-5-(2-fluoro-5-((7-(2-propyn-1-yloxy)pyrido[3,2-d]pyrimidin-4-yl)amino)phenyl)-2-thia-4-azabicyclo[4.1.0]hept-3-en-1-yl)-N,N-dimethyl-2-propenamide], the IC50 at human recombinant BACE2 is 0.0264 µM; on human recombinant BACE1 it was 0.0012 µM; on Recombinant Cat D, 293 µM; in experiment [1] it was 0.00305 µM.

With `Cc1cc(C#N)cnc1C(=O)Nc1cc(F)c(F)c([C@@]2(C)N=C(N)S[C@@]3(C(F)F)C[C@@H]23)c1` [Example 94, N-(3-((1S,5S,6S)-3-amino-1-(difluoromethyl)-5-methyl-2-thia-4-azabicyclo[4.1.0]hept-3-en-5-yl)-4,5-difluorophenyl)-5-cyano-3-methylpicolinamide], the IC50 is under 0.00203 µM on human recombinant BACE2 (BACE2 FRET enzyme assay), 0.00053 µM on human recombinant BACE1 (BACE1 FRET enzyme assay), 559 µM on Recombinant Cat D (Cathepsin D FRET enzyme assay) and 0.00304 µM in experiment [1] (BACE1 cell-based assay).

Regarding `COC(=O)[C@]12C[C@H]1[C@@](C)(c1cc(NC(=O)c3ccc(Cl)cn3)cc(F)c1F)N=C(N)S2` [Example 898, (1S,5S,6S)-methyl 3-amino-5-(5-(5-chloropicolinamido)-2,3-difluorophenyl)-5-methyl-2-thia-4-azabicyclo[4.1.0]hept-3-ene-1-carboxylate], the concentration for half-maximal inhibition (IC50) came out at 0.00268 µM on human recombinant BACE2, 0.00454 µM on human recombinant BACE1, 673 µM on Recombinant Cat D and 0.111 µM in experiment [1].

As to `COC[C@]12C[C@H]1[C@@](C)(c1cc(Nc3ncnc4cc(C#N)cnc34)cnc1F)N=C(N)S2` [Example 846, 4-((5-((1S,5S,6S)-3-amino-1-(methoxymethyl)-5-methyl-2-thia-4-azabicyclo[4.1.0]hept-3-en-5-yl)-6-fluoro-3-pyridinyl)amino)pyrido[3,2-d]pyrimidine-7-carbonitrile], the IC50 at human recombinant BACE2 is 0.0494 µM; on human recombinant BACE1 it was 0.0282 µM; on Recombinant Cat D, over 400 µM; in experiment [1] it was 0.0111 µM.

Take `CC#CCOc1cnc2c(Nc3cc(F)c(F)c([C@@]4(C)N=C(N)S[C@@]5(COC)C[C@H]54)c3)nccc2n1` [Example 869, N-(3-((1S,5S,6S)-3-amino-1-(methoxymethyl)-5-methyl-2-thia-4-azabicyclo[4.1.0]hept-3-en-5-yl)-4,5-difluorophenyl)-2-(2-butyn-1-yloxy)pyrido[3,4-b]pyrazin-5-amine]: the IC50 came to 0.0173 µM on human recombinant BACE2, 0.000725 µM on human recombinant BACE1, 127 µM on Recombinant Cat D and 0.00155 µM in experiment [1].

`C#CCOc1cnc2c(Nc3ccc(F)c([C@@]4(C)N=C(N)S[C@]5([C@@H](C)O)[C@H]4C5(F)F)c3)nccc2n1` [Example 713, (1R)-1-((1S,5S,6R)-3-amino-7,7-difluoro-5-(2-fluoro-5-((2-(2-propyn-1-yloxy)pyrido[3,4-b]pyrazin-5-yl)amino)phenyl)-5-methyl-2-thia-4-azabicyclo[4.1.0]hept-3-en-1-yl)ethanol]: the half-inhibitory concentration (IC50) at human recombinant BACE2 amounted to 0.00394 µM; at human recombinant BACE1, 0.000864 µM; on Recombinant Cat D it was 547 µM; in experiment [1], 0.00543 µM.

For the compound `NC1=N[C@](CF)(c2cc(NC(=O)c3ccc(Cl)cn3)ccc2F)[C@@H]2C[C@]2(/C=C/C(=O)O)S1` [Example 757, (E)-3-((1R,5S,6S)-3-amino-5-(5-(5-chloropicolinamido)-2-fluorophenyl)-5-(fluoromethyl)-2-thia-4-azabicyclo[4.1.0]hept-3-en-1-yl)acrylic acid], the IC50 at human recombinant BACE2 is under 0.00203 µM; on human recombinant BACE1, 0.000176 µM; at Recombinant Cat D it was 458 µM; in experiment [1] it was 0.0498 µM.

Turning to `C#CCOc1cnc2c(Nc3ccc(F)c([C@@]4(C)N=C(N)S[C@@]5([C@@H](O)C(F)(F)F)C[C@H]54)c3)nccc2n1` [Example 672, (1S)-1-((1S,5S,6S)-3-amino-5-(2-fluoro-5-((2-(2-propyn-1-yloxy)pyrido[3,4-b]pyrazin-5-yl)amino)phenyl)-5-methyl-2-thia-4-azabicyclo[4.1.0]hept-3-en-1-yl)-2,2,2-trifluoroethanol], the IC50 on human recombinant BACE2 was 0.0685 µM; on human recombinant BACE1 it was 0.00142 µM; at Recombinant Cat D it was 638 µM; in experiment [1], 0.007 µM.

Take `COC[C@]12C[C@H]1[C@@](C)(c1cc(Nc3nccc4cc(OCc5ncon5)cnc34)cc(F)c1F)N=C(N)S2` [Example 730, N-(3-((1S,5S,6S)-3-amino-1-(methoxymethyl)-5-methyl-2-thia-4-azabicyclo[4.1.0]hept-3-en-5-yl)-4,5-difluorophenyl)-3-(1,2,4-oxadiazol-3-ylmethoxy)-1,7-naphthyridin-8-amine]: the 50% inhibitory concentration (IC50) at human recombinant BACE2 turned out to be 1.03 µM; on human recombinant BACE1 it was 0.0157 µM; on Recombinant Cat D, 1380 µM; in experiment [1], 0.0759 µM.

On to `N#Cc1cnc2c(Nc3cc(F)c(F)c([C@@]4(CF)N=C(N)S[C@]5(CO)C[C@@H]54)c3)nccc2c1` [Example 57, 8-((3-((1R,5S,6R)-3-amino-5-(fluoromethyl)-1-(hydroxymethyl)-2-thia-4-azabicyclo[4.1.0]hept-3-en-5-yl)-4,5-difluorophenyl)amino)-1,7-naphthyridine-3-carbonitrile], for which the IC50 on human recombinant BACE2 (BACE2 FRET enzyme assay) stood at 0.0235 µM; at human recombinant BACE1 (BACE1 FRET enzyme assay) it was 0.00563 µM; at Recombinant Cat D (Cathepsin D FRET enzyme assay), 29.5 µM; in experiment [1] (BACE1 cell-based assay), 0.0225 µM.
